Test results taken from ChEMBL document CHEMBL1201862, “PubChem BioAssay data set” (2004).
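Five concentrations, 48 hours, 96-well plates. GI50 is the concentration that inhibits growth by half.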 The source made the active and inactive calls. No stated cut-off is given here; in the data, active = GI50 up to about 1.1 µM and inactive = higher.

What was measured:
Test in all cases: DTP human tumour cell line panel, 48 h
[1] = tested on: NCI/ADR-RES
[2] = tested on: SR
[3] = tested on: MOLT-4
[4] = tested on: MDA-N
[5] = tested on: LOX IMVI
[6] = tested on: CAKI-1
[7] = tested on: SNB-75
[8] = tested on: CCRF-CEM
[9] = tested on: RXF 393
[10] = tested on: OVCAR-8
[11] = tested on: SN12C
[12] = tested on: BT-549
[13] = tested on: T47D
[14] = tested on: HOP-62
[15] = tested on: SK-MEL-2
[16] = tested on: Malme-3M
[17] = tested on: MDA-MB-231
[18] = tested on: U-251
[19] = tested on: SK-MEL-5
[20] = tested on: EKVX

| Compound | GI50 [1] | GI50 [2] | GI50 [3] | GI50 [4] | GI50 [5] | GI50 [6] | GI50 [7] | GI50 [8] | GI50 [9] | GI50 [10] | GI50 [11] | GI50 [12] | GI50 [13] | GI50 [14] | GI50 [15] | GI50 [16] | GI50 [17] | GI50 [18] | GI50 [19] | GI50 [20] |
| --- | --- | --- | --- | --- | --- | --- | --- | --- | --- | --- | --- | --- | --- | --- | --- | --- | --- | --- | --- | --- |
| Cc1cc(=O)oc2c(CN(CCCl)CCCl)c(O)ccc12 | 71.9 µM (inactive) | 43.6 µM (inactive) | 4.99 µM (inactive) | 78.2 µM (inactive) | 10.7 µM (inactive) | 6.78 µM (inactive) | 53.5 µM (inactive) | 2.47 µM (inactive) | 30.5 µM (inactive) | 54.6 µM (inactive) | 20.7 µM (inactive) | 21.1 µM (inactive) | 31.5 µM (inactive) | 26.5 µM (inactive) | > 100 µM (inactive) | 34.1 µM (inactive) | > 100 µM (inactive) | 38.4 µM (inactive) | 16.6 µM (inactive) | > 100 µM (inactive) |
| C=CC(C)(C)n1cc(C2=C(O)C(=O)C(c3cn(C(C)(C)C=C)c4ccccc34)=C(OC(C)=O)C2=O)c2ccccc21 | 1.64 µM (inactive) | 0.298 µM (active) | 0.475 µM (active) | 0.662 µM (active) | 0.508 µM (active) | 1.08 µM (active) | 0.419 µM (active) | 0.435 µM (active) | 0.929 µM (active) | 0.632 µM (active) | 0.456 µM (active) | 0.494 µM (active) | 1.68 µM (inactive) | 0.628 µM (active) | 1.02 µM (active) | 1.46 µM (inactive) | 1.3 µM (inactive) | 0.426 µM (active) | 0.64 µM (active) | 1.11 µM (active) |
| CC(=O)NC1C(OCc2ccccc2)OC(CO)C(O)C1OC(C)C(=O)NC(C)C(=O)NC(CCC(=O)NCCCCNc1c2ccccc2nc2cccc([N+](=O)[O-])c12)C(N)=O (stereo not given) | 0.123 µM (active) | 0.00796 µM (active) | 0.148 µM (active) | 0.0232 µM (active) | 0.216 µM (active) | 0.0325 µM (active) | 0.18 µM (active) | 0.114 µM (active) | 0.0199 µM (active) | 0.0228 µM (active) | 0.0284 µM (active) | 0.196 µM (active) | 0.291 µM (active) | 0.0791 µM (active) | 0.0944 µM (active) | 0.0348 µM (active) | 0.0237 µM (active) | 0.042 µM (active) | 0.0356 µM (active) | 0.0625 µM (active) |
| O=Cc1ccc(-c2nccc3c2[nH]c2ccccc23)o1 | > 100 µM (inactive) | > 100 µM (inactive) | > 94.8 µM (inactive) | > 100 µM (inactive) | > 56.2 µM (inactive) | 4.91 µM (inactive) | > 100 µM (inactive) | > 100 µM (inactive) | 22.2 µM (inactive) | > 87.1 µM (inactive) | > 100 µM (inactive) | > 100 µM (inactive) | 47.9 µM (inactive) | 42.8 µM (inactive) | > 95.5 µM (inactive) | > 100 µM (inactive) | > 85.1 µM (inactive) | 68.9 µM (inactive) | 82.2 µM (inactive) | > 100 µM (inactive) |
| Brc1ccc2c(-c3nc(-c4c[nH]c5ccc(Br)cc45)cs3)c[nH]c2c1 | 4.56 µM (inactive) | 3.15 µM (inactive) | 2.46 µM (inactive) | 4.45 µM (inactive) | 2.32 µM (inactive) | 4.03 µM (inactive) | 14.5 µM (inactive) | 4.68 µM (inactive) | 4.45 µM (inactive) | 7.14 µM (inactive) | 4.63 µM (inactive) | 13.3 µM (inactive) | 4.86 µM (inactive) | 11.7 µM (inactive) | 6.25 µM (inactive) | 4.24 µM (inactive) | 3.69 µM (inactive) | 4.43 µM (inactive) | 4.51 µM (inactive) | 1.24 µM (inactive) |
